Assay results: patent US12576107B2, “Methods of treating chronic inflammatory diseases” (METIMEDI PHARMACEUTICALS CO., LTD., priority 2018, dated 2026)

Columns and labels:
lactate dehydrogenase B = experiment: Human fibroblast in vitro experiment, Western blot in CCD-18Co cells; assay type: cell-based; conditions: 2.5 mM; CCD-18Co cells (human colon fibroblast); hypoxia
Experimental: (§1) Human Colon Fibroblast cell line, CCD-18-Co, was purchased from American Type Culture Collection (Manassas, VA, USA). The CCD-18Co cells were maintained in DMEM containing 10% fetal bovine serum (Life Technologies, Gaithersburg, MD, USA), 100 IU/ml penicillin, and 100 μg/ml streptomycin (Welgene, Daegu, South Korea).
(§2) To prepare whole cell lysate, cells were lysed with lysis buffer (1% NP-40, 0.25% sodium deoxycholate, 150 mM NaCl, 1 mM EDTA, 1% Triton X-100, 50 mM Tris-HCl (pH 7.4), 10% Glycerol) with protease inhibitor cocktail (Roche, Basel, Switzerland) and phosphatase inhibitors (NA3VO4 1 mM, NaF 100 mM). Then, protein concentration was measured using the Bicinchoninic acid (BCA) assay kit (Thermo Scientific, Waltham, MA). Whole cell or nuclear lysates were transferred onto polyvinylidene fluoride membranes (Merck Millipore, Billerica, MA, USA). After blocking in 5% non-fat milk (Bio-Rad, Hercules, CA, USA) for 1 h, the membranes were incubated overnight at 4° C. with primary antibody diluted in TBST containing 100 mM Tris-HCl (pH 7.5), 1.5 M NaCl, and 0.5% Tween-20 obtained from Sigma-Aldrich, to which 5% BSA and 0.1% sodium azide (Sigma-Aldrich) had been added. Specific primary antibodies to HIF-1α (1:1000), HIF-2α (1:1000), LDH-A (1:1000), LDH-B (1:1000), TLR-4 (1:1000), NF-κB (1:1000), VEGF (1:1000), α-tubulin (1:1000), Actin (1:1000), and GAPDH (1:5000). […]

TLR-4 = experiment: Western blot of TLR-4 in HepG2 cells; assay type: cell-based, Human; conditions: 2.5 mM; HepG2 cells (liver epithelium); hypoxia
Experimental: as §1, with “Hepatocellular carcinoma” for “Colon Fibroblast”, “HepG2,” for “CCD-18-Co,”, “HepG2” for “CCD-18Co”, “RPMI 1640” for “DMEM”
as §2

hypoxia-mediated factors = experiment: Eye CID in vitro experiment, Western blot in ARPE-19 cells; assay type: cell-based, Human; conditions: 2.5 mM; ARPE-19 cells (retinal pigment epithelium); normoxia and hypoxia
Experimental: as §1, with “retinal pigment epithelium” for “Colon Fibroblast”, “ARPE-19,” for “CCD-18-Co,”, “ARPE-19” for “CCD-18Co”, “RPMI1640” for “DMEM”
as §2

[1] = test system: hypoxia inducible factor-1α (HIF-1α); experiment: Liver fibrosis in vitro experiment, Western blot in LX-2 cells; assay type: cell-based; conditions: 2.5 mM, LX-2 cells (human hepatic stellate cell)
Experimental: Human Hepatic Stellate cell line, LX-2, was purchased from Sigma-Aldrich (St Louis, MO, USA). The LX-2 cells were maintained in DMEM containing 2% fetal bovine serum (Life Technologies, Gaithersburg, MD, USA), 100 IU/ml penicillin, and 100 μg/ml streptomycin (Welgene, Daegu, South Korea).
as §2

Apolipoprotein E = experiment: Immunocytochemistry of drusen marker Apolipoprotein E in ARPE-19 cells; assay type: cell-based, Human; conditions: 2.5 mM, hypoxia
Experimental: as §1, with “retinal pigment epithelium” for “Colon Fibroblast”, “ARPE-19,” for “CCD-18-Co,”, “ARPE-19” for “CCD-18Co”, “RPMI1640” for “DMEM”
ARPE-19 and SK-N-SH cells were fixed on bio-coated coverslips (BD bioscience, San Jose, CA, USA) by 4% PFA for 20 min and then incubated with the primary antibodies for 15 h. The primary antibodies were as follows: HIF-1a (1:300, BD Biosciences, San Jose, CA, USA); LDH-A (1:300, Santa Cruz Biotechnology, Santa Cruz, CA, USA); LDH-B (1:300, Santa Cruz Biotechnology, Santa Cruz, CA, USA); NF-κB (1:300, Santa Cruz Biotechnology, Santa Cruz, CA, USA); TLR-4 (1:300, Santa Cruz Biotechnology, Santa Cruz, CA, USA); apoE (1:200, Santa Cruz Biotechnology, Santa Cruz, CA, USA). After PBS wash, the cells were incubated with anti-mouse secondary biotinylated antibody (1:2000, Vector Laboratorie, Burlingame, CA, USA) and visualized with streptavidin conjugated to Fluorescein (Vector Laboratorie, Burlingame, CA, USA). […] Confocal fluorescence images were obtained with confocal laser scanning microscopy (LSCM, Nikon A1+, Tokyo, Japan) under a 60× oil immersion lens.

Compound: CC(O)C(=O)[O-].CC(O)C(=O)[O-].[Ca+2] (centres unmarked) [calcium lactate]
- lactate dehydrogenase B, Western blot (lactate dehydrogenase B): increased
- inflammatory factor (TLR-4), Western blot (TLR-4): decreased
- hypoxia-mediated factors, Western blot (hypoxia-mediated factors): decreased
- hypoxia inducible factor-1α (HIF-1α), Western blot [1]: decreased
- drusen marker (Apolipoprotein E), immunocytochemistry (Apolipoprotein E): decreased
